Test results reported in ChEMBL document CHEMBL1201862, “PubChem BioAssay data set” (2004).
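Compound exposure: 48 hours, 5 concentrations, 96-well plates. Abbreviation: GI50, concentration required for 50% inhibition of growth.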 The source made the active and inactive calls. Cut-off read from the data, not from the text of the source: active = GI50 up to about 1.1 µM and inactive = higher.

How the values were obtained:
Test in all cases: DTP human tumour cell line panel, 48 h
MDA-N = test system: MDA-N
SW-620 = test system: SW-620
PC-3 = test system: PC-3
SK-OV-3 = test system: SK-OV-3
M14 = test system: M14
UO-31 = test system: UO-31
SNB-19 = test system: SNB-19
SR = test system: SR
OVCAR-4 = test system: OVCAR-4
OVCAR-8 = test system: OVCAR-8
SF-539 = test system: SF-539
EKVX = test system: EKVX
IGROV-1 = test system: IGROV-1
UACC-257 = test system: UACC-257
OVCAR-3 = test system: OVCAR-3
MDA-MB-435 = test system: MDA-MB-435
HCT-116 = test system: HCT-116
HOP-62 = test system: HOP-62
SF-295 = test system: SF-295
SK-MEL-28 = test system: SK-MEL-28
RXF 393 = test system: RXF 393
T47D = test system: T47D
K562 = test system: K562
HT-29 = test system: HT-29
NCI-H522 = test system: NCI-H522
NCI-H460 = test system: NCI-H460
HOP-92 = test system: HOP-92
SK-MEL-5 = test system: SK-MEL-5
BT-549 = test system: BT-549
Hs-578T = test system: Hs-578T
MCF7 = test system: MCF7
SNB-75 = test system: SNB-75
ACHN = test system: ACHN
MDA-MB-231 = test system: MDA-MB-231
TK-10 = test system: TK-10
OVCAR-5 = test system: OVCAR-5
SK-MEL-2 = test system: SK-MEL-2
NCI/ADR-RES = test system: NCI/ADR-RES
SN12C = test system: SN12C
KM12 = test system: KM12
NCI-H226 = test system: NCI-H226
U-251 = test system: U-251
CAKI-1 = test system: CAKI-1
A498 = test system: A498
COLO 205 = test system: COLO 205
HCC 2998 = test system: HCC 2998
UACC-62 = test system: UACC-62
A549 = test system: A549
Malme-3M = test system: Malme-3M
NCI-H23 = test system: NCI-H23
DU-145 = test system: DU-145
HCT-15 = test system: HCT-15
786-0 = test system: 786-0
SF-268 = test system: SF-268
HL-60 = test system: HL-60
LOX IMVI = test system: LOX IMVI
CCRF-CEM = test system: CCRF-CEM
MOLT-4 = test system: MOLT-4

Question: `COc1c2ccsc2c(OC)c2ccsc12` was tested. Which GI50 (MDA-N) did it give?
Answer: > 100 µM (inactive)

Question: What about the GI50 (SW-620) of the same molecule?
Answer: > 100 µM (inactive)

Question: And the GI50 (PC-3)?
Answer: > 100 µM (inactive)

Question: What about the GI50 (SK-OV-3) of the same molecule?
Answer: > 100 µM (inactive)

Question: What about the GI50 (M14) of the same molecule?
Answer: > 100 µM (inactive)

Question: What about the GI50 (UO-31) of the same molecule?
Answer: > 100 µM (inactive)

Question: And the GI50 (SNB-19)?
Answer: > 100 µM (inactive)

Question: And the GI50 (SR)?
Answer: > 100 µM (inactive)

Question: And the GI50 (OVCAR-4)?
Answer: > 100 µM (inactive)

Question: What about the GI50 (OVCAR-8) of the same molecule?
Answer: > 100 µM (inactive)

Question: What about the GI50 (SF-539) of the same molecule?
Answer: 26.1 µM (inactive)

Question: What about the GI50 (EKVX) of the same molecule?
Answer: > 100 µM (inactive)

Question: What about the GI50 (IGROV-1) of the same molecule?
Answer: > 100 µM (inactive)

Question: And the GI50 (UACC-257)?
Answer: > 100 µM (inactive)

Question: What about the GI50 (OVCAR-3) of the same molecule?
Answer: > 100 µM (inactive)

Question: What about the GI50 (MDA-MB-435) of the same molecule?
Answer: > 100 µM (inactive)

Question: And the GI50 (HCT-116)?
Answer: > 100 µM (inactive)

Question: What about the GI50 (HOP-62) of the same molecule?
Answer: 40.2 µM (inactive)

Question: And the GI50 (SF-295)?
Answer: 61.8 µM (inactive)

Question: What about the GI50 (SK-MEL-28) of the same molecule?
Answer: > 100 µM (inactive)

Question: What about the GI50 (RXF 393) of the same molecule?
Answer: 35.2 µM (inactive)

Question: What about the GI50 (T47D) of the same molecule?
Answer: > 100 µM (inactive)

Question: And the GI50 (K562)?
Answer: > 100 µM (inactive)

Question: What about the GI50 (HT-29) of the same molecule?
Answer: > 100 µM (inactive)

Question: And the GI50 (NCI-H522)?
Answer: > 100 µM (inactive)

Question: What about the GI50 (NCI-H460) of the same molecule?
Answer: > 100 µM (inactive)

Question: And the GI50 (HOP-92)?
Answer: 39.4 µM (inactive)

Question: And the GI50 (SK-MEL-5)?
Answer: > 100 µM (inactive)

Question: And the GI50 (BT-549)?
Answer: > 100 µM (inactive)

Question: And the GI50 (Hs-578T)?
Answer: 71.4 µM (inactive)

Question: What about the GI50 (MCF7) of the same molecule?
Answer: > 100 µM (inactive)

Question: And the GI50 (SNB-75)?
Answer: 42.6 µM (inactive)

Question: And the GI50 (ACHN)?
Answer: > 100 µM (inactive)

Question: What about the GI50 (MDA-MB-231) of the same molecule?
Answer: > 100 µM (inactive)

Question: What about the GI50 (TK-10) of the same molecule?
Answer: > 100 µM (inactive)

Question: And the GI50 (OVCAR-5)?
Answer: > 100 µM (inactive)

Question: What about the GI50 (SK-MEL-2) of the same molecule?
Answer: > 100 µM (inactive)

Question: And the GI50 (NCI/ADR-RES)?
Answer: > 100 µM (inactive)

Question: What about the GI50 (SN12C) of the same molecule?
Answer: > 100 µM (inactive)

Question: And the GI50 (KM12)?
Answer: > 100 µM (inactive)

Question: What about the GI50 (NCI-H226) of the same molecule?
Answer: > 100 µM (inactive)

Question: And the GI50 (U-251)?
Answer: 95.7 µM (inactive)

Question: What about the GI50 (CAKI-1) of the same molecule?
Answer: 0.478 µM (active)

Question: What about the GI50 (A498) of the same molecule?
Answer: > 100 µM (inactive)

Question: And the GI50 (COLO 205)?
Answer: > 100 µM (inactive)

Question: And the GI50 (HCC 2998)?
Answer: > 100 µM (inactive)

Question: What about the GI50 (UACC-62) of the same molecule?
Answer: > 100 µM (inactive)

Question: What about the GI50 (A549) of the same molecule?
Answer: > 100 µM (inactive)

Question: And the GI50 (Malme-3M)?
Answer: > 100 µM (inactive)

Question: What about the GI50 (NCI-H23) of the same molecule?
Answer: > 100 µM (inactive)

Question: And the GI50 (DU-145)?
Answer: > 100 µM (inactive)

Question: What about the GI50 (HCT-15) of the same molecule?
Answer: > 100 µM

Question: And the GI50 (786-0)?
Answer: > 100 µM (inactive)

Question: What about the GI50 (SF-268) of the same molecule?
Answer: > 100 µM (inactive)

Question: What about the GI50 (HL-60) of the same molecule?
Answer: > 100 µM (inactive)

Question: And the GI50 (LOX IMVI)?
Answer: > 100 µM (inactive)

Question: And the GI50 (CCRF-CEM)?
Answer: > 100 µM (inactive)

Question: What about the GI50 (MOLT-4) of the same molecule?
Answer: > 100 µM (inactive)

Question: For `COc1cc2cc(C(=O)N3CC(COS(C)(=O)=O)c4ccc(NC(=O)OCc5ccccc5)cc43)[nH]c2c(OC)c1OC` (stereo unspecified), which GI50 (MDA-N) is on record?
Answer: > 100 µM (inactive)

Question: What about the GI50 (SW-620) of the same molecule?
Answer: > 100 µM (inactive)

Question: And the GI50 (PC-3)?
Answer: > 100 µM (inactive)

Question: What about the GI50 (SK-OV-3) of the same molecule?
Answer: > 100 µM (inactive)

Question: And the GI50 (M14)?
Answer: > 100 µM (inactive)

Question: What about the GI50 (UO-31) of the same molecule?
Answer: > 100 µM (inactive)

Question: And the GI50 (SNB-19)?
Answer: > 100 µM (inactive)

Question: What about the GI50 (SR) of the same molecule?
Answer: 3.24 µM (inactive)

Question: What about the GI50 (OVCAR-4) of the same molecule?
Answer: > 100 µM (inactive)

Question: And the GI50 (OVCAR-8)?
Answer: > 100 µM (inactive)

Question: What about the GI50 (SF-539) of the same molecule?
Answer: > 100 µM (inactive)

Question: And the GI50 (EKVX)?
Answer: > 100 µM (inactive)

Question: And the GI50 (IGROV-1)?
Answer: > 100 µM (inactive)

Question: And the GI50 (UACC-257)?
Answer: > 100 µM (inactive)

Question: What about the GI50 (OVCAR-3) of the same molecule?
Answer: > 100 µM (inactive)

Question: And the GI50 (MDA-MB-435)?
Answer: > 100 µM (inactive)

Question: What about the GI50 (HCT-116) of the same molecule?
Answer: > 100 µM (inactive)

Question: What about the GI50 (HOP-62) of the same molecule?
Answer: 79.1 µM (inactive)

Question: And the GI50 (SF-295)?
Answer: > 100 µM (inactive)

Question: What about the GI50 (SK-MEL-28) of the same molecule?
Answer: > 100 µM (inactive)

Question: What about the GI50 (RXF 393) of the same molecule?
Answer: 25.2 µM (inactive)

Question: What about the GI50 (T47D) of the same molecule?
Answer: > 100 µM (inactive)

Question: What about the GI50 (K562) of the same molecule?
Answer: > 100 µM (inactive)

Question: And the GI50 (HT-29)?
Answer: > 100 µM (inactive)

Question: And the GI50 (NCI-H522)?
Answer: 99.1 µM (inactive)

Question: And the GI50 (NCI-H460)?
Answer: 91.8 µM (inactive)

Question: What about the GI50 (HOP-92) of the same molecule?
Answer: 9.59 µM (inactive)

Question: What about the GI50 (SK-MEL-5) of the same molecule?
Answer: 26.5 µM (inactive)

Question: What about the GI50 (BT-549) of the same molecule?
Answer: > 100 µM (inactive)

Question: And the GI50 (Hs-578T)?
Answer: > 100 µM (inactive)

Question: And the GI50 (MCF7)?
Answer: 0.55 µM (active)

Question: What about the GI50 (SNB-75) of the same molecule?
Answer: 28.9 µM (inactive)

Question: What about the GI50 (ACHN) of the same molecule?
Answer: > 100 µM (inactive)

Question: And the GI50 (MDA-MB-231)?
Answer: > 100 µM (inactive)

Question: What about the GI50 (TK-10) of the same molecule?
Answer: > 100 µM (inactive)

Question: What about the GI50 (OVCAR-5) of the same molecule?
Answer: > 100 µM (inactive)

Question: What about the GI50 (SK-MEL-2) of the same molecule?
Answer: 67.1 µM (inactive)

Question: What about the GI50 (NCI/ADR-RES) of the same molecule?
Answer: > 100 µM (inactive)

Question: What about the GI50 (SN12C) of the same molecule?
Answer: > 100 µM (inactive)

Question: What about the GI50 (KM12) of the same molecule?
Answer: > 100 µM (inactive)

Question: And the GI50 (NCI-H226)?
Answer: > 100 µM (inactive)

Question: And the GI50 (U-251)?
Answer: > 100 µM (inactive)

Question: What about the GI50 (CAKI-1) of the same molecule?
Answer: > 100 µM (inactive)

Question: What about the GI50 (A498) of the same molecule?
Answer: 43.3 µM (inactive)

Question: And the GI50 (COLO 205)?
Answer: > 100 µM (inactive)

Question: What about the GI50 (HCC 2998) of the same molecule?
Answer: 84.3 µM (inactive)

Question: What about the GI50 (UACC-62) of the same molecule?
Answer: > 100 µM (inactive)

Question: What about the GI50 (A549) of the same molecule?
Answer: > 100 µM (inactive)

Question: What about the GI50 (Malme-3M) of the same molecule?
Answer: > 100 µM (inactive)

Question: And the GI50 (NCI-H23)?
Answer: 17 µM (inactive)

Question: What about the GI50 (DU-145) of the same molecule?
Answer: > 100 µM (inactive)

Question: And the GI50 (HCT-15)?
Answer: > 100 µM

Question: What about the GI50 (786-0) of the same molecule?
Answer: > 100 µM (inactive)

Question: And the GI50 (SF-268)?
Answer: > 100 µM (inactive)

Question: And the GI50 (HL-60)?
Answer: > 100 µM (inactive)

Question: And the GI50 (LOX IMVI)?
Answer: > 100 µM (inactive)

Question: What about the GI50 (CCRF-CEM) of the same molecule?
Answer: > 100 µM (inactive)

Question: And the GI50 (MOLT-4)?
Answer: 28.3 µM (inactive)
